Reference: US20120041006A1, “Compositions for Raising Uric Acid Levels and Methods of Using the Same” (priority 1998, published 2012)

What was measured:
[1] = Chickens given allopurinol to lower uric acid; glycosylation damage; assay type: in vivo
Method: The following example was conducted to establish the role of uric acid in protecting against the sequelia associated with diabetic damage. It is established that this sequelia occurs in diabetic patients due to increases in sugar levels that result from either the insufficient production of insulin or the insufficient breakdown of sugar by the insulin, depending of the type of diabetes. Sugar, in excess conditions, can become an oxidizer, which leads to oxidative damage in a patient. Glycosylated hemoglobin (HBA1C) is used to measure the amount of oxidative damage that results from excess sugar in a patient; increased (HBA1C) is the definition used for diabetes. […] Chickens are known to have excessively high sugar levels, and should be essentially in a diabetic state. […] To confirm the causal relationship between high levels of uric acid and prevention of glycosylation damage, chickens were given allopurinol. This compound specifically […].

[2] = Oral uric acid precursor in a person with Alzheimer's; assay type: in vivo, human; details: one Alzheimer's patient; 500-1,000 mg orally per day; upon raising uric acid levels

| Compound | signs of diabetic complications ([1]; after uric acid reduced to below normal levels) | uric acid levels ([1]; enough administered to effect significant conversion of uric acid) | levels of the chicken equivalent of A1C (glycosylated hemoglobin) ([1]; once uric acid reduced to below normal levels) | Alzheimer symptoms (not recognizing bathroom, incontinence, general cognitive decline) [2] |
| --- | --- | --- | --- | --- |
| Oc1ncnc2[nH]ncc12 [allopurinol] | exhibited signs of diabetic complications | lowering of uric acid levels | increased dramatically |  |
| O=c1[nH]cnc2nc[nH]c12 [hypoxanthine] |  |  |  | reduced |
| OC[C@H]1O[C@@H](n2cnc3c(O)ncnc32)[C@H](O)[C@@H]1O [inosine] |  |  |  | reduced |
